The test system of assay [1] is electrically blocked neurons (mouse spinal cord neurons). Type of assay: cell-based.
Assay [2] concerns untreated neurons (cerebral cortical cultures). Nature of the assay: Survival of untreated neurons (naturally occurring death), cerebral cortical cultures. The class given is cell-based. Particulars: untreated rat cerebral cortical cultures. The protocol:
(a) Cerebral cortical cultures were prepared by a slight modification of the techniques described by Forsythe and Westbrook, (a. Physiol. Lond. 396:515 (1988)), in which cerebral cortex was used instead of hippocampus and newborn rats were utilized instead of E16 mice. After nine days growth in vitro, the cultures were given a complete change of medium and treated with serial dilutions of either peptide 1, 2 or 6 in order to determine whether these peptides were effective in protecting neurons from naturally occurring death. Cerebral cortical cells were counted as above, however, only 40 fields per plate were counted comprising an area of 20 mm^2.
(a) Cells were prepared as described in Example 6. After nine days growth in vitro, the cultures were given a complete change of medium and treated with serial dilutions of peptide 5 or of peptide 3 in the presence and in the absence of 10^-8 M of a VIP antagonist described in detail in U.S. Pat. No. 5,217,953. One treatment was given at the beginning of a five day test period. Cell counts were performed on 100 fields, with a total area of 50 mm^2. Neurons were counted without knowledge of treatment.

In assay [3] the test system is Neurons from rat cerebral cortex treated with β-amyloid peptide fragment 25-35. Nature of the assay: Survival of neurons treated with fragment 25-35 of β-amyloid peptide. Particulars: 25 μM fragment alone; 150 without fragment.

This note sets out measurements from US5972883A, “Method for the treatment of neurodegenerative diseases by administering VIP, an analogue, fragment or a conjugate thereof” (Yeda Research and Development Co. Ltd., priority 1993, dated 1999).

`CCCC[C@H](NC(=O)[C@H](CCC(N)=O)NC(=O)[C@H](CCCCN)NC(=O)[C@H](CCCNC(=N)N)NC(=O)[C@H](CC(C)C)NC(=O)[C@H](CCCNC(=N)N)NC(=O)[C@@H](NC(=O)[C@H](Cc1ccc(O)cc1)NC(=O)[C@H](CC(N)=O)NC(=O)[C@H](CC(=O)O)NC(=O)[C@@H](NC(=O)[C@H](Cc1ccccc1)NC(=O)[C@@H](NC(=O)[C@H](C)NC(=O)[C@H](CC(=O)O)NC(=O)[C@H](CO)NC(=O)[C@@H](N)Cc1c[nH]cn1)C(C)C)[C@@H](C)O)[C@@H](C)O)C(=O)N[C@@H](C)C(=O)N[C@H](C(=O)N[C@@H](CCCCN)C(=O)N[C@@H](CCCCN)C(=O)N[C@@H](Cc1ccc(O)cc1)C(=O)N[C@@H](CC(C)C)C(=O)N[C@@H](CC(N)=O)C(=O)N[C@@H](CO)C(=O)N[C@H](C(=O)N[C@@H](CC(C)C)C(=O)N[C@@H](CC(N)=O)C(N)=O)[C@@H](C)CC)C(C)C` [Nle^17 -VIP, Norleucine^17 -VIP]: in assay [1], the “potency relative to native VIP in protecting electrically blocked cells from death” value is listed as “about 10 fold”.

On to “St-His-Ser-Asp-Gly-Ee-Phe-Thr-Asp-Ser-Tyr-Ser-Arg-Tyr-Arg-amide (stearyl-HSDGIFTDSYSRYR-NH2; not fully specified (residue 5); printed as St-His-Ser-Asp-Gly-Ee-Phe-Thr-Asp-Ser-Tyr-Ser-Arg-Tyr-Arg-amide) [peptide 1]”, for which, in assay [2], the “concentrations protecting cells from naturally occurring death” value is “above 10^-8 M”.

Take “fragment 25-35 of β-amyloid peptide: β-amyloid peptide fragment comprising amino acids in positions 25 to 35, toxic to neurons in culture (GSNKGAIIGLM; Amyloid-beta protein 42; UniProt P05067 696-706, looked up, fragment) [reference compound]”: the “number of living neurons per tested area” value in assay [3] is reported as 42 neurons.
